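Grown in 96-well plates, cells were treated for 48 hours with each compound at five concentrations. Insufficient inhibition: endpoint recorded as highest concentration tested. The concentration for 50% growth inhibition is given as GI50. Definition used: TGI = concentration required for complete inhibition of growth.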
Legend:
Test in all cases: inhibition of tumour cell growth, NCI panel, 48 h; in the data active = GI50 below about 0.43 µM; inactive = the rest
UACC-257 melanoma = tested on: UACC-257 melanoma
OVCAR-3 ovarian = tested on: OVCAR-3 ovarian
COLO 205 colon = tested on: COLO 205 colon
HT29 colon = tested on: HT29 colon
U251 CNS = tested on: U251 CNS
OVCAR-8 ovarian = tested on: OVCAR-8 ovarian
SNB-19 CNS = tested on: SNB-19 CNS
ACHN renal = tested on: ACHN renal
SW-620 colon = tested on: SW-620 colon
DU-145 prostate = tested on: DU-145 prostate
BT-549 breast = tested on: BT-549 breast
SK-MEL-2 melanoma = tested on: SK-MEL-2 melanoma
IGROV1 ovarian = tested on: IGROV1 ovarian
OVCAR-5 ovarian = tested on: OVCAR-5 ovarian
A549 NSCLC = tested on: A549 NSCLC
NCI-H460 lung = tested on: NCI-H460 lung
786-0 renal = tested on: 786-0 renal
SF-268 CNS = tested on: SF-268 CNS
HS 578T breast = tested on: HS 578T breast
NCI-H226 lung = tested on: NCI-H226 lung
HCC-2998 colon = tested on: HCC-2998 colon
MALME-3M melanoma = tested on: MALME-3M melanoma
NCI-H23 lung = tested on: NCI-H23 lung
LOX IMVI melanoma = tested on: LOX IMVI melanoma
MCF7 breast = tested on: MCF7 breast
UO-31 renal = tested on: UO-31 renal
CCRF-CEM leukemia = tested on: CCRF-CEM leukemia
SK-MEL-5 melanoma = tested on: SK-MEL-5 melanoma
HL-60(TB) leukemia = tested on: HL-60(TB) leukemia
RXF 393 renal = tested on: RXF 393 renal
MDA-MB-435 = tested on: MDA-MB-435
TK-10 renal = tested on: TK-10 renal
SNB-75 CNS = tested on: SNB-75 CNS
CAKI-1 renal = tested on: CAKI-1 renal
SK-MEL-28 melanoma = tested on: SK-MEL-28 melanoma
A498 renal = tested on: A498 renal
SK-OV-3 ovarian = tested on: SK-OV-3 ovarian
NCI-H522 lung = tested on: NCI-H522 lung
RPMI-8226 leukemia = tested on: RPMI-8226 leukemia
T-47D breast = tested on: T-47D breast
HOP-92 NSCLC = tested on: HOP-92 NSCLC
PC-3 prostate = tested on: PC-3 prostate
SN12C renal = tested on: SN12C renal
UACC-62 melanoma = tested on: UACC-62 melanoma
KM12 colon = tested on: KM12 colon
HCT-116 colon = tested on: HCT-116 colon
EKVX NSCLC = tested on: EKVX NSCLC
MDA-MB-231 breast = tested on: MDA-MB-231 breast
HOP-62 NSCLC = tested on: HOP-62 NSCLC
K-562 leukemia = tested on: K-562 leukemia
SF-539 CNS = tested on: SF-539 CNS
M14 melanoma = tested on: M14 melanoma
OVCAR-4 ovarian = tested on: OVCAR-4 ovarian
SF-295 CNS = tested on: SF-295 CNS
MOLT-4 leukemia = tested on: MOLT-4 leukemia
NCI/ADR-RES ovarian = tested on: NCI/ADR-RES ovarian
SR leukemia = tested on: SR leukemia
HCT-15 colon = tested on: HCT-15 colon

COc1cc(/C=N/n2c(-c3ccccc3)n[nH]c2=O)cc(OC)c1OC
48.2 µM: TGI (786-0 renal)
> 25 µM: TGI (SK-OV-3 ovarian)
29.8 µM: TGI (RXF 393 renal)
9.96 µM: TGI (NCI/ADR-RES ovarian)
> 30.2 µM: TGI (SNB-75 CNS)
> 58.1 µM: TGI (NCI-H522 lung)
18 µM: TGI (SF-295 CNS)
39.1 µM: TGI (SF-539 CNS)
> 43.1 µM: TGI (SNB-19 CNS)
40.7 µM: TGI (SF-268 CNS)
6.43 µM: TGI (MDA-MB-435)
> 42.3 µM: TGI (U251 CNS)
> 37.5 µM: TGI (OVCAR-3 ovarian)
40.5 µM: TGI (ACHN renal)
> 82.2 µM: TGI (HOP-92 NSCLC)
> 100 µM: TGI (UACC-257 melanoma) | TGI (COLO 205 colon) | TGI (HT29 colon) | TGI (OVCAR-8 ovarian) | TGI (SW-620 colon) | TGI (IGROV1 ovarian) | TGI (OVCAR-5 ovarian) | TGI (A549 NSCLC) | TGI (NCI-H460 lung) | TGI (NCI-H226 lung) | TGI (HCC-2998 colon) | TGI (LOX IMVI melanoma) | TGI (MCF7 breast) | TGI (UO-31 renal) | TGI (CCRF-CEM leukemia) | TGI (SK-MEL-5 melanoma) | TGI (HL-60(TB) leukemia) | TGI (SK-MEL-28 melanoma) | TGI (RPMI-8226 leukemia) | TGI (T-47D breast) | TGI (PC-3 prostate) | TGI (SN12C renal) | TGI (UACC-62 melanoma) | TGI (KM12 colon) | TGI (HCT-116 colon) | TGI (EKVX NSCLC) | TGI (K-562 leukemia) | TGI (M14 melanoma) | TGI (OVCAR-4 ovarian) | TGI (MOLT-4 leukemia) | TGI (SR leukemia) | TGI (HCT-15 colon)
> 59 µM: TGI (SK-MEL-2 melanoma)
> 61.8 µM: TGI (MDA-MB-231 breast)
21.7 µM: TGI (CAKI-1 renal)
> 65.9 µM: TGI (TK-10 renal)
18.6 µM: TGI (BT-549 breast)
> 76.2 µM: TGI (DU-145 prostate)
> 71.8 µM: TGI (NCI-H23 lung)
17.4 µM: TGI (A498 renal)
48.8 µM: TGI (MALME-3M melanoma)
33.1 µM: TGI (HOP-62 NSCLC)
20.2 µM: TGI (HS 578T breast)

CNC(=O)NCC1OC(n2cnc3c(NC(=O)Nc4ccccc4)ncnc32)C(O[Si](C)(C)C(C)(C)C)C1CC(=O)N(C)OC (centres undefined)
4.23 µM: TGI (HL-60(TB) leukemia)
4.06 µM: TGI (SR leukemia)
5.4 µM: TGI (RPMI-8226 leukemia)
> 63.5 µM: TGI (A498 renal)
> 81.1 µM: TGI (IGROV1 ovarian)
9.36 µM: TGI (MOLT-4 leukemia)
inactive: GI50 (UACC-257 melanoma) 8.25 µM | GI50 (OVCAR-3 ovarian) 5.84 µM | GI50 (COLO 205 colon) 12.3 µM | GI50 (HT29 colon) 4.12 µM | GI50 (U251 CNS) 4.85 µM | GI50 (OVCAR-8 ovarian) 6.52 µM | GI50 (SNB-19 CNS) > 23 µM | GI50 (ACHN renal) 7.87 µM | GI50 (SW-620 colon) > 100 µM | GI50 (DU-145 prostate) 14.7 µM | GI50 (BT-549 breast) 9.58 µM | GI50 (SK-MEL-2 melanoma) 8.08 µM | GI50 (IGROV1 ovarian) 4 µM | GI50 (OVCAR-5 ovarian) 16.8 µM | GI50 (A549 NSCLC) 5.88 µM | GI50 (NCI-H460 lung) 5.32 µM | GI50 (786-0 renal) 7.06 µM | GI50 (SF-268 CNS) 8.29 µM | GI50 (HS 578T breast) 7.39 µM | GI50 (NCI-H226 lung) 15.8 µM | GI50 (HCC-2998 colon) 30.6 µM | GI50 (MALME-3M melanoma) 7.51 µM | GI50 (NCI-H23 lung) 23.6 µM | GI50 (LOX IMVI melanoma) 5.12 µM | GI50 (MCF7 breast) 4.11 µM | GI50 (UO-31 renal) 5.7 µM | GI50 (CCRF-CEM leukemia) 6.37 µM | GI50 (SK-MEL-5 melanoma) 4.92 µM | GI50 (HL-60(TB) leukemia) 1.69 µM | GI50 (RXF 393 renal) 4.02 µM | GI50 (MDA-MB-435) 5.66 µM | GI50 (TK-10 renal) 9.17 µM | GI50 (SNB-75 CNS) 6.32 µM | GI50 (CAKI-1 renal) 53.8 µM | GI50 (SK-MEL-28 melanoma) 5.21 µM | GI50 (A498 renal) 6.06 µM | GI50 (SK-OV-3 ovarian) > 72.6 µM | GI50 (NCI-H522 lung) 7.76 µM | GI50 (RPMI-8226 leukemia) 1.58 µM | GI50 (T-47D breast) 7.41 µM | GI50 (HOP-92 NSCLC) 4.33 µM | GI50 (PC-3 prostate) 4.95 µM | GI50 (SN12C renal) 17.1 µM | GI50 (UACC-62 melanoma) 41.9 µM | GI50 (KM12 colon) 10.6 µM | GI50 (HCT-116 colon) 3.95 µM | GI50 (EKVX NSCLC) 12.3 µM | GI50 (MDA-MB-231 breast) 8.47 µM | GI50 (HOP-62 NSCLC) 22 µM | GI50 (K-562 leukemia) 3.12 µM | GI50 (SF-539 CNS) 8.21 µM | GI50 (M14 melanoma) 8.36 µM | GI50 (OVCAR-4 ovarian) 16.6 µM | GI50 (SF-295 CNS) 9.09 µM | GI50 (MOLT-4 leukemia) 2.23 µM | GI50 (NCI/ADR-RES ovarian) > 100 µM | GI50 (SR leukemia) 1.63 µM | GI50 (HCT-15 colon) 4.8 µM
> 49.3 µM: TGI (HOP-92 NSCLC)
12.7 µM: TGI (RXF 393 renal)
> 100 µM: TGI (UACC-257 melanoma) | TGI (OVCAR-3 ovarian) | TGI (COLO 205 colon) | TGI (HT29 colon) | TGI (U251 CNS) | TGI (OVCAR-8 ovarian) | TGI (SNB-19 CNS) | TGI (ACHN renal) | TGI (SW-620 colon) | TGI (DU-145 prostate) | TGI (BT-549 breast) | TGI (OVCAR-5 ovarian) | TGI (A549 NSCLC) | TGI (NCI-H460 lung) | TGI (786-0 renal) | TGI (SF-268 CNS) | TGI (HS 578T breast) | TGI (NCI-H226 lung) | TGI (HCC-2998 colon) | TGI (MALME-3M melanoma) | TGI (NCI-H23 lung) | TGI (LOX IMVI melanoma) | TGI (MCF7 breast) | TGI (UO-31 renal) | TGI (CCRF-CEM leukemia) | TGI (SK-MEL-5 melanoma) | TGI (MDA-MB-435) | TGI (TK-10 renal) | TGI (SNB-75 CNS) | TGI (CAKI-1 renal) | TGI (SK-MEL-28 melanoma) | TGI (SK-OV-3 ovarian) | TGI (NCI-H522 lung) | TGI (T-47D breast) | TGI (PC-3 prostate) | TGI (SN12C renal) | TGI (UACC-62 melanoma) | TGI (KM12 colon) | TGI (HCT-116 colon) | TGI (EKVX NSCLC) | TGI (MDA-MB-231 breast) | TGI (HOP-62 NSCLC) | TGI (K-562 leukemia) | TGI (SF-539 CNS) | TGI (M14 melanoma) | TGI (OVCAR-4 ovarian) | TGI (SF-295 CNS) | TGI (NCI/ADR-RES ovarian) | TGI (HCT-15 colon)
> 91.2 µM: TGI (SK-MEL-2 melanoma)
